From PMC10247784, “Physiological activation of human and mouse bitter taste receptors by bile acids” (Communications Biology, 2023)
Values joined by “and” are separate entries in the source; they are usually repeats but may differ in a detail not shown here. Identical values can stand only once.

Target: T1, human TAS2R1 (Homo sapiens, UniProt Q9NYW7)
T1 construct: expressed in transfected cells; host or cells: HEK293T-Gα16gust44
T1 sequence (Q9NYW7 1-299): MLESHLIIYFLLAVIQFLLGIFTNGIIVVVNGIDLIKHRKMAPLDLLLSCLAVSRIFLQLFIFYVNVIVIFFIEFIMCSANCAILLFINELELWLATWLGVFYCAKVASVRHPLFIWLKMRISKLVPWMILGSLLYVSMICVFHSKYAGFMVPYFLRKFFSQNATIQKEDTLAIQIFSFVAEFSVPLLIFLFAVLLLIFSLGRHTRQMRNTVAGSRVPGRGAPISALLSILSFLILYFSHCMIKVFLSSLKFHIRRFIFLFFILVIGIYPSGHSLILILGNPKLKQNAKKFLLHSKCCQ
Assay: Calcium imaging assay (FLIPR), HEK293T-Gα16gust44 cells transfected with human TAS2R1
Format: cell-based
How it was run: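 Read-out is Fluo-4 fluorescence change (ΔF/F) after automated application of bile acids (DMSO stocks) to transiently transfected cells. Values are corrected for empty-vector cells and normalized to buffer. Dose-response from three independent experiments in duplicate; threshold concentration set at p < 0.01 versus mock.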

In the case of `C[C@H](CCC(=O)NCCS(=O)(=O)O)[C@H]1CC[C@H]2[C@@H]3[C@H](O)C[C@@H]4C[C@H](O)CC[C@]4(C)[C@H]3C[C@H](O)[C@]12C` [Taurocholic Acid, taurocholic acid], the “Efficacy = maximal amplitude (ΔF/F)” value (TAS2R1, bile acids, mean) is reported as 0.09987, the “Efficacy (maximal amplitude ΔF/F), individual data points” value (TAS2R1, bile acids, single replicates, listed as TCA) is reported as 0.08896 and 0.09306 and 0.1176 and the RLU (Time 0 s (second time grid)) is reported as 0 RLU. It also gave an RLU (Time 2 s) of 7.952 RLU, an RLU (Time 4 s) of 20.145 RLU and an RLU (Time 6 s) of -3.167 RLU. It also gave an RLU (Time 8 s) of -1.092 RLU, an RLU (Time 12 s) of 4.801 RLU and an RLU (Time 14 s) of 10.0652 RLU. For the same compound, the RLU (Time 16 s) was -4.025 RLU, the RLU (Time 18 s) was 30.6672 RLU and the RLU (Time 18.781 s) was -8.288 RLU. It also gave an RLU (Time 20.781 s) of 38.1129 RLU, an RLU (Time 22.781 s) of 36.5466 RLU and an RLU (Time 24.781 s) of 100.781 RLU. The RLU (Time 26.781 s) was 94.321 RLU, the RLU (Time 28.781 s) was 128.096 RLU and the RLU (Time 30.781 s) was 168.752 RLU. The RLU (Time 32.781 s) was 222.063 RLU, the RLU (Time 34.781 s) was 248.838 RLU and the RLU (Time 36.781 s) was 287.098 RLU. The RLU (Time 38.781 s) was 303.962 RLU, the RLU (Time 40.781 s) was 295.88 RLU and the RLU (Time 42.781 s) was 354.401 RLU. It also gave an RLU (Time 44.781 s) of 378.941 RLU, an RLU (Time 46.781 s) of 349.497 RLU and an RLU (Time 48.781 s) of 364.135 RLU. For the same compound, the RLU (Time 50.781 s) was 379.282 RLU, the RLU (Time 52.781 s) was 390.659 RLU and the RLU (Time 54.781 s) was 392.471 RLU. For the same compound, the RLU (Time 56.781 s) was 396.221 RLU, the RLU (Time 58.781 s) was 410.391 RLU and the RLU (Time 60.781 s) was 390.107 RLU. It also gave an RLU (Time 62.781 s) of 396.638 RLU, an RLU (Time 64.781 s) of 407.599 RLU and an RLU (Time 66.781 s) of 435.147 RLU. It also gave an RLU (Time 68.781 s) of 406.802 RLU, an RLU (Time 70.781 s) of 400.242 RLU and an RLU (Time 72.781 s) of 418.773 RLU. It also gave an RLU (Time 74.781 s) of 413.176 RLU, an RLU (Time 76.781 s) of 422.764 RLU and an RLU (Time 78.781 s) of 402.418 RLU. The RLU (Time 80.781 s) was 440.793 RLU, the RLU (Time 82.781 s) was 428.932 RLU and the RLU (Time 84.781 s) was 402.626 RLU. It also gave an RLU (Time 86.781 s) of 438.62 RLU, an RLU (Time 88.781 s) of 435.97 RLU and an RLU (Time 90.781 s) of 417.798 RLU. For the same compound, the RLU (Time 92.781 s) was 396.047 RLU, the RLU (Time 94.781 s) was 416.808 RLU and the RLU (Time 96.781 s) was 401 RLU. The RLU (Time 98.781 s) was 382.662 RLU, the RLU (Time 100.781 s) was 386.609 RLU and the RLU (Time 102.781 s) was 391.574 RLU. It also gave an RLU (Time 104.781 s) of 343.693 RLU, an RLU (Time 106.781 s) of 334.229 RLU and an RLU (Time 108.781 s) of 318.822 RLU. For the same compound, the RLU (Time 110.781 s) was 359.901 RLU, the RLU (Time 112.781 s) was 338.629 RLU and the RLU (Time 114.781 s) was 327.9 RLU. For the same compound, the RLU (Time 116.781 s) was 308.179 RLU, the RLU (Time 118.781 s) was 311.101 RLU and the RLU (Time 120.781 s) was 314.431 RLU. For the same compound, the RLU (Time 122.781 s) was 288.825 RLU, the RLU (Time 124.781 s) was 292.111 RLU and the RLU (Time 126.781 s) was 280.428 RLU. It also gave an RLU (Time 128.781 s) of 264.252 RLU, an RLU (Time 130.781 s) of 247.5 RLU and an RLU (Time 132.781 s) of 279.196 RLU. The RLU (Time 134.781 s) was 263.266 RLU, the RLU (Time 136.781 s) was 260.122 RLU and the RLU (Time 137.547 s) was 257.068 RLU. The RLU (Time 143.547 s) was 228.429 RLU, the RLU (Time 149.547 s) was 221.043 RLU and the RLU (Time 155.547 s) was 204.711 RLU. The RLU (Time 161.547 s) was 175.173 RLU, the RLU (Time 167.547 s) was 178.916 RLU and the RLU (Time 173.547 s) was 141.583 RLU. It also gave an RLU (Time 179.547 s) of 150.852 RLU, an RLU (Time 185.547 s) of 123.705 RLU and an RLU (Time 191.547 s) of 70.5412 RLU. It also gave an RLU (Time 197.547 s) of 46.3148 RLU, an RLU (Time 203.547 s) of 75.6277 RLU and an RLU (Time 209.547 s) of 55.0459 RLU. The RLU (Time 215.547 s) was 35.7219 RLU, the RLU (Time 221.547 s) was 50.9362 RLU and the RLU (Time 227.547 s) was 33.794 RLU. It also gave an RLU (Time 233.547 s) of 65.6166 RLU, an RLU (Time 239.547 s) of 27.332 RLU and an RLU (Time 245.547 s) of 17.8718 RLU. The RLU (Time 293.547 s) was -10.6071 RLU, the RLU (Time 299.547 s) was -16.6248 RLU and the RLU (calcium trace, sheet TAS2R1, Time 305.547 s) was -3.144 RLU. The RLU (calcium trace, sheet TAS2R1, Time 311.547 s) was 2.9951 RLU, the RLU (calcium trace, sheet TAS2R1, Time 317.547 s) was -15.9144 RLU and the RLU (calcium trace, sheet TAS2R1, Time 323.547 s) was -10.1142 RLU. The RLU (calcium trace, sheet TAS2R1, Time 329.547 s) was 11.6208 RLU, the RLU (calcium trace, sheet TAS2R1, Time 335.547 s) was 11.3706 RLU and the RLU (calcium trace, sheet TAS2R1, Time 341.547 s) was 7.052 RLU. For the same compound, the RLU (calcium trace, sheet TAS2R1, Time 347.547 s) was 31.851 RLU, the RLU (calcium trace, sheet TAS2R1, Time 353.547 s) was 3.282 RLU and the RLU (calcium trace, sheet TAS2R1, Time 359.547 s) was 34.6741 RLU. The “Δ F/F” value (conc. 0,01 mM, TAS2R1) was 0.007126, the “Δ F/F” value (conc. 0,1 mM, TAS2R1) was 0.04642 and the “Δ F/F” value (conc. 0,03 mM, TAS2R1) was 0.01897. For the same compound, the “Δ F/F” value (conc. 0,3 mM, TAS2R1) was 0.09987, the “Δ F/F” value (conc. 0,001 mM, TAS2R1) was 0.004203 and the “Δ F/F” value (conc. 0,003 mM, TAS2R1) was 0.00592. The “Activation threshold concentration TAS2R1” value (lowest concentration with significantly increased fluorescence vs empty vector (p < 0.01)) was 100 µM and 100.00 µM.
